# Experimental data taken from patent US20150343038A1, “METHOD AND COMPOSITION FOR TREATING SPASTICITY” (THE REGENTS OF THE UNIVERSITY OF CALIFORNIA, priority 2013, published 2015).
# “Also recorded” adds a separate entry of the source. Read-outs that look alike come from different tables or passages of the source.
# Tests used:
# [1] = rats; cited from earlier work
# spasticity = conditions: cited from earlier work; for anti-spasticity effect in clinical studies: systemic (tiagabine: clinically-acceptable doses) or spinal administration
# [2] = tested on: rats with ischemic spasticity; format: in vivo, rat
# [3] = tested on: lumbar gray matter extracellular GABA; test: Spinal cord microdialysis, extracellular GABA by HPLC; format: in vivo, rat; conditions: tiagabine 40 mg/kg i.p., at 20-40 min
# Protocol: Spinal cord microdialysis was performed in naive (n=6), spastic-non treated (n=6), spastic HIV1-CMV-GFP lentivirus-injected (n=6) and spastic HIV1-CMV-GAD65-GFP (n=6) lentivirus-injected animals. Rats were anesthetized with 2% isoflurane, previous laminectomy site (in lentivirus injected animals) re-exposed and concentric microdialysis probe (A-2-8-02; cut off: MW 50,000; EICOM, Japan) placed into central gray matter between L3-L6 spinal cord segments. Microdialysis fiber was perfused with artificial CSF at 2 μl/min and samples collected on dry ice. After 120 min washout samples were collected in 20 min intervals before and after tiagabine (40 mg/kg, i.p.) injections and analyzed for GABA using HPLC (HTEC-500; EICOM).
# [4] = tested on: upper extremity motor function; test: Side effects / upper extremity motor function in treated spastic rats; format: in vivo, rat
# brain extracellular GABA = conditions: after systemic administration of 11.5-21 mg/kg; cited from earlier work
# [5] = human patients; cited from earlier work
# [6] = tested on: rats with ischemic spasticity; test: Hoffmann reflex (H-wave amplitude) during high frequency (20 Hz) stimulation; format: in vivo, rat
# Protocol: H-reflex was recorded as previously described. Under ketamine anesthesia (100 mg/kg/hr, i.m.) the right hind limb of the animal was secured and a pair of stimulating needle electrodes was transcutaneously inserted into the surroundings of the tibial nerve. For recording, a pair of silver needle electrodes was placed into the interosseous muscles between the fourth and the fifth or the first and the second metatarsal right foot muscles. The tibial nerve was stimulated using square pulses with increasing stimulus intensity (0.1-10 mA in 0.5 mA increments, 0.1 Hz, 0.2 ms; WPI; Isostim A320) and responses were recorded with an A/C-coupled differential amplifier (Model DB4; DPI, Sarasota, Fla.). After the M-max and H-max responses were identified the intensity of stimulus which evoked H-max amplitudes were used in subsequent high frequency (20 Hz) stimulation experiment. In HIV1-CMVGAD65-GFP (n=6) or HIV1-CMV-GFP (n=6) lentivirus-injected animals a high frequency stimulation was performed in 5 min intervals for up to 90 min after tiagabine (40 mg/kg, i.p.) injection. Changes in H-wave amplitude were then compared between both lentivirus-injected groups.
# [7] = tested on: rats with ischemic spasticity; conditions: intrathecal baclofen (1 μg elsewhere in the source); previous studies, same spinal ischemia-induced spasticity model; cited from earlier work
# spastic patients = conditions: intrathecal treatment; cited from earlier work
# [8] = tested on: in vitro cultured neurons; conditions: cited from earlier work
smiles,measurement,setting,value
Cc1ccsc1C(=CCCN1CCC[C@@H](C(=O)O)C1)c1sccc1C [tiagabine],serum half-life,[1],0.917 h
same,anti-spasticity effect in clinical studies,spasticity,only a weak or no anti-spasticity effect
same,time of peak anti-spasticity effect after tiagabine administration,[2]; HIV1-CMV-GAD65-GFP-injected spastic rats,25 min
same,tiagabine doses providing significant (p<0.01) anti-spasticity effect,"[2]; dose response 1, 4, 10, 20, 40 mg/kg, at 15-25 min after injection, HIV1-CMV-GAD65-GFP-injected spastic rats",≥ 4 mg/kg
same,anti-spasticity effect,[2]; systemic tiagabine in spastic rats injected spinally (L2-L5) with GAD65-encoding lentivirus (HIV1-CMV-GAD65-GFP),"potent, dose-dependent reduction in spasticity; also recorded: potent and tiagabine-dose-dependent alleviation of spasticity; also recorded: potent and significant anti-spasticity effect"
same,anti-spasticity effect,[2]; tiagabine 40 mg/kg i.p. alone (monotherapy),without anti-spasticity effect
same,anti-spasticity effect,[2]; tiagabine 40 mg/kg i.p. followed 15 min later by intrathecal GABA 1 mg,potent and highly significant anti-spasticity effect
same,anti-spasticity effect,[2]; tiagabine 40 mg/kg i.p. in spastic rats injected spinally with control HIV1-CMV-GFP lentivirus,no antispasicity effect; also recorded: without effect
same,"spinal extracellular GABA concentration, change after tiagabine",[3]; HIV1-CMV-GAD65-GFP lentivirus-injected spastic animals,significant (p<0.05) increase
same,"spinal extracellular GABA concentration, change after tiagabine",[3]; naive animals,significant (p<0.05) increase
same,effect on upper limb motor function,[4]; after tiagabine in spastic rats with lumbar GAD65 lentivirus injection,No detectable effect
same,side effect,[4]; either treatment alone (GAD65-LVs injection only or tiagabine only),nor had any detectable side effect
same,effect on upper extremity motor function,[4]; tiagabine 40 mg/kg i.p. + intrathecal GABA 1 mg,No suppressive effect
same,increase in brain levels of extracellular GABA,brain extracellular GABA,2-3 fold
same,serum half-life,[5],5 to 8 h
same,change in H-wave amplitude,"[6]; tiagabine 40 mg/kg i.p., HIV1-CMV-GAD65-GFP-injected spastic rats, ketamine-sedated",significant (p<0.05) reduction
same,change in H-reflex amplitudes,"[6]; tiagabine 40 mg/kg i.p., control HIV1-CMV-GFP-injected spastic rats, up to 90 min, ketamine-sedated",no change
same,H-wave amplitude returned back to baseline by,[6]; {},≤ 65 min
same,time window of significant H-wave amplitude reduction after tiagabine injection,[6]; {},20 to 45 min
NCC(CC(=O)O)c1ccc(Cl)cc1 (stereo not shown) [baclofen],anti-spasticity effect,[7],potent anti-spasticity effect; also recorded: previously reported anti-spasticity effect
same,anti-spasticity effect in clinical studies,spasticity,most potent anti-spasticity pharmacological treatment
same,major side effects limiting chronic use,spasticity; systemic or spinally-administered,general sedation and progressive tolerance development
same,H-reflex activity,spastic patients,significant suppression of H-reflex activity
"NCCCC(=O)O [GABA, gamma-aminobutryic acid]",anti-spasticity effect,"[2]; GABA 1 mg intrathecal alone, measured for 60 min",No significant anti-spasticity effect
same,concentrations required to exert receptor-mediated effect,[8],1 to 2 µmol
